Test [1] is described as follows: inhibitors of intracellular T. cruzi replication, confirmation, NIH3T3 host cells, beta-gal luminescence (AID 2044).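 Also: intracellular parasites grown in NIH/3T3 mouse fibroblasts as host cells; luminescent beta-galactosidase reporter signal from transgenic T. cruzi replicating inside host cells; inhibitors lower the luminescence signal.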 The class given is functional, cell-based.
Test [2] is described as follows: cytotoxicity toward NIH3T3 fibroblasts, dose response, counter-screen, cell-based, ATP luminescence, mouse fibroblasts (AID 2010).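 Also: cells exposed to compound for about 90 hours before reading.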 The class given is functional.
Test [3] deals with INS1. The experiment in a line: beta cell apoptosis inhibitors, cytokine rescue, dose response, luminescence, retest (AID 449756).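 Also: cell death triggered by IL-1 beta plus TNF-alpha plus IFN-gamma mixture; protective hits raise ATP signal compared with cytokine alone wells.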 The class given is functional, cell-based. The following applies: Rattus norvegicus.
Test [4] in a line: HEp-2 cell cytotoxicity, dose response, cytotoxicity control for RSV inhibitor project, HTS (AID 2410). The class given is functional. The following applies: human respiratory syncytial virus.
Test [5] can be described thus: inhibitors of firefly luciferase expression or activity, dose response, H4 neuroglioma cells, luminescence (AID 1990). The class given is functional, cell-based.
Test [6] is described as follows: Luminescence Cell-Based Dose Response HTS to Identify Inhibitors of 5'UTR Stem-Loop Driven Prion Protein mRNA Translation in H4 Neuroglioblastoma Cells. [Related pubchem assays: 1827 (Project Summary), 1813 (Primary HTS)]. The class given is functional.
Test [7] in a line: inhibitors of SNCA 5'UTR-driven reporter translation, confirmation, H4 neuroglioma cells, luminescence (AID 1988). The class given is functional, cell-based.
Test [8] has as its target T1, Cytochrome P450 1A2 (Homo sapiens, UniProt P05177).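 Also: PubChem cytochrome P450 panel assay, CYP1A2 panel member.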
T1 sequence (P05177 whole entry): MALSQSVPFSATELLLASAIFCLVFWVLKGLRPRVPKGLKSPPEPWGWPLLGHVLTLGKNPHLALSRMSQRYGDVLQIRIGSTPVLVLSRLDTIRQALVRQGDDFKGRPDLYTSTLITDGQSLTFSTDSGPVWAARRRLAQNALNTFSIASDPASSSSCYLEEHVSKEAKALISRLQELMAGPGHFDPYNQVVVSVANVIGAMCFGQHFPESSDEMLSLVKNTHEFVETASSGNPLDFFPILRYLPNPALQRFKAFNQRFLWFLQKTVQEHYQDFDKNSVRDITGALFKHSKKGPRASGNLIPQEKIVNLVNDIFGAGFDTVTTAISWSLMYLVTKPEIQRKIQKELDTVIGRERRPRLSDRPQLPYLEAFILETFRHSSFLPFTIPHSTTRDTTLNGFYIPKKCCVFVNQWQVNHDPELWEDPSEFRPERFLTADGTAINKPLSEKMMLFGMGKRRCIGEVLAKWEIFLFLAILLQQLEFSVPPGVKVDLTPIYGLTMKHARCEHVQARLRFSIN

These results are taken from ChEMBL document CHEMBL1201862, “PubChem BioAssay data set” (2004).

Active and inactive are the calls of the source. Rule as the data show it, for most assays here: actives have a measured EC50 and inactives only a lower limit.

Usually EC50 stands for the concentration that produces a half-maximal response. For `Cc1ccc(-c2nnc(N3CCCCCC3)c3ccccc23)cc1`, the figures for the EC50 in test [1] and in test [2] were 1.19 µM (active) and > 60 µM (not active), respectively.
Broadly, the AC50 is the midpoint of the concentration-response curve, whichever way the signal moves. Regarding `Cc1ccc(C2CC(c3cccc(C)c3)n3nc(N)nc3N2)cc1` (stereo not drawn), the AC50 in test [3] was > 260 µM (inactive).
The CC50 is the concentration that lowers cell viability or growth by half. Take `Cc1ccc(N2CCN(C(=O)c3nn(C)c4c3CS(=O)(=O)c3ccccc3-4)CC2)c(C)c1`: the CC50 in test [4] was 10.3 µM (active).
The same measure, in the same setting: in the case of `CCC(C)c1ccc(-c2cc(C(=O)OCC(=O)Nc3cc(C)on3)c3ccccc3n2)cc1` (stereo not drawn) it was 43.8 µM (active).
As to `COc1ccccc1N1CCN(S(=O)(=O)CCNC(=O)C2CC(=O)N(c3ccccc3)C2)CC1` (stereo not drawn), the EC50 in test [5] is > 120 µM (not active); in test [6], > 120 µM (not active); in test [7], 114 µM (active).
Take `Cc1nc2ccccc2c(=O)n1-c1cc([N+](=O)[O-])cc([N+](=O)[O-])c1`: the figures for the EC50 in test [1] and in test [2] were 1.98 µM (active) and > 60 µM (not active), respectively.
For `COC(=O)C1CCC(C)(C(=O)Nc2ccccc2)C1(C)C` (stereo not drawn), in test [8], the AC50 was 15.8 µM (inconclusive).
On to `CN(C)CCN(C(=O)c1ccc(S(=O)(=O)N(C)c2ccccc2)cc1)c1nc2ccc(Cl)cc2s1`, for which the figures for the EC50 in test [1] and in test [2] were 0.117 µM (active) and > 15 µM (not active), respectively.
As to `CC(=O)N1CCc2cc(S(=O)(=O)NCCC3=CCCCC3)ccc21`, the AC50 in test [3] was 4.54 µM (active).
In the case of `Cc1ccccc1C(=O)NC(=S)Nc1sc2c(c1C#N)CCCC2`, in test [4], the CC50 is 25.9 µM (active).
Turning to `O=C(/C=C/c1ccccc1)NC(NC(=S)Nc1ccc(Cl)cc1Cl)C(Cl)(Cl)Cl` (stereo not drawn), the EC50 in test [1] was 2.02 µM (active); in test [2] it was > 60 µM (not active).
For the compound `CSCc1cc(N2CCOCC2)nc(SCc2ccc(Cl)c(Cl)c2)n1`, in test [4], the CC50 was 26.1 µM (active).
As for `COc1ccc(-c2cc(C(F)F)n3ncc(C(=O)N4CCCCC4)c3n2)cc1`, the CC50 in test [4] was > 50 µM (active). Further, the EC50 in test [1] was 1.25 µM (active); in test [2], > 60 µM (not active).
For the compound `CCOC(=O)C1(CCOc2ccccc2)CCN(Cc2ccc3nonc3c2)CC1`, the half-maximal effective concentration (EC50) in test [1] is 2.61 µM (active); in test [2], > 60 µM (not active).
Turning to `CCC(C)Sc1nc2c(c(=O)[nH]c(=O)n2C)n1C` (stereo not drawn), the CC50 in test [4] was 20.8 µM (active).
As for `Cc1ccc(Cn2nnc3c(O)nc(C4CCN(S(=O)(=O)Cc5ccccc5)CC4)nc32)cc1`, in test [4], the CC50 is 26.8 µM (active).
Regarding `CN1C/C(=C/c2ccsc2)C(=O)/C(=C/c2ccsc2)C1`, the concentration for a half-maximal effect (EC50) in test [1] was 0.156 µM (active); in test [2] it was > 30 µM (not active).
For the compound `COc1ccc(-c2csc3ncnc(N4CCN(S(=O)(=O)c5ccc(C)c(C)c5)CC4)c23)cc1`, the concentration giving a half-maximal response (EC50) in test [1] is 2.05 µM (active); in test [2], 24.1 µM (active).
In the case of `CCCc1cc(NCCCCO)n2c(nc3ccccc32)c1C#N`, the EC50 in test [5] is 25.6 µM (active); in test [6], > 120 µM (not active); in test [7], > 120 µM (not active).
Turning to `Cc1cc(Cl)ccc1OCCCC(=O)NC1CCN(C)CC1`, the concentration giving a half-maximal response (EC50) in test [1] was 0.164 µM (active); in test [2], > 60 µM (not active).
On to `Nc1ccccc1C(=O)Nc1ccc(Cl)cc1Cl`, for which the CC50 in test [4] was 35.7 µM (active).
On to `COc1ccc(C2=NN(C(=O)COc3ncnc4ccccc34)C(c3ccco3)C2)cc1` (stereo not drawn), for which the concentration for a half-maximal effect (EC50) in test [5] is 13.8 µM (active); in test [6] it was > 120 µM (not active); in test [7], > 60 µM (not active).
Consider `CCCOc1ccc([N+](=O)[O-])cc1C1NC(S)=NC(c2ccccc2)=C1C(=O)OCC` (stereo not drawn), for which the CC50 in test [4] was 40.5 µM (active).
For `COc1ccc(NC(=O)/C(C#N)=C/c2cc(C)n(-c3ccc(N4CCOCC4)c([N+](=O)[O-])c3)c2C)cc1`, the EC50 was > 120 µM (not active) in test [5], 35.2 µM (active) in test [6] and > 120 µM (not active) in test [7].
Regarding `COc1ccccc1Cn1nnc2c(O)nc(C3CCN(C(=O)c4ccccc4Cl)CC3)nc21`, the concentration giving a half-maximal response (EC50) in test [5] was > 120 µM (not active); in test [6] it was > 120 µM (not active); in test [7], 68.6 µM (active).
As to `COc1ccccc1NS(=O)(=O)c1cccc(NC(=O)c2sc3ccccc3c2Cl)c1`, the 50% effective concentration (EC50) in test [1] was 1.19 µM (active); in test [2], > 60 µM (not active).
Take `CC(=O)N(C(C)=O)c1[nH]cc2c3ccccc3nc-2c1C#N`: the concentration for a half-maximal effect (EC50) is 9.63 µM (active) in test [5], 12.9 µM (active) in test [6] and 15.7 µM (active) in test [7].
Regarding `CCCN1CCC(=NNc2ccc(S(=O)(=O)N(CC)CC)cc2[N+](=O)[O-])CC1`, the EC50 in test [5] is 16.5 µM (active); in test [6] it was > 120 µM (not active); in test [7] it was 8.05 µM (active).
For the compound `Cc1ccn2cc(-c3cccc(S(=O)(=O)N4CC(C)OC(C)C4)c3)nc2c1` (stereo not drawn), the CC50 in test [4] was > 50 µM (active).
For `COC(=O)[C@@]1(Cc2ccccc2)[C@H]2c3cc(C(=O)N4CCCC4)[nH]c3C[C@H]2CN1C(=O)c1ccccc1`, in test [8], the AC50 was 1.26 µM (inconclusive).
With `CCOC(=O)c1cccc(-c2c(-c3ccccc3)ncc3cc(OC)c(OC)cc23)c1`, the CC50 in test [4] is 20.4 µM (active).
As for `CCCCN1CC(=O)C(c2nc(-c3ccc(Cl)cc3)cs2)=C1N`, the EC50 in test [5], in test [6] and in test [7] was > 120 µM (not active) each time.
As to `O=C(NCc1ccccc1)c1ccc(C(=O)N(C2CCCCC2)C2CCCCC2)cc1`, the half-maximal effective concentration (EC50) in test [1] is 2.27 µM (active); in test [2], > 60 µM (inconclusive).
Take `Cn1c(=O)[nH]c(=O)c2c1nc(N1CCCCCC1)n2Cc1cccc2ccccc12`: the EC50 is 24.4 µM (active) in test [5], > 120 µM (not active) in test [6] and 45 µM (active) in test [7].
As for `Cc1cc(C(=O)CSc2nc3ccccc3c(=O)n2C)c(C)n1Cc1ccc2c(c1)OCO2`, the concentration at half-maximal activity (AC50) in test [3] was 1.41 µM (active).
On to `CC(C)(C)c1ccc(C(=O)Nc2ccc(S(=O)(=O)Nc3cnc4ccccc4n3)cc2)cc1`, for which the CC50 in test [4] was 8.3 µM (active).
Consider `COC(=O)c1ccc(CSc2ccc3nnc(-c4ccccc4)n3n2)o1`, for which the EC50 was > 120 µM (not active) in test [5], 15.7 µM (active) in test [6] and 16.6 µM (active) in test [7].
On to `Cc1ccc(-c2cc(C(F)F)n3ncc(C(=O)N4CCc5ccccc5C4)c3n2)cc1`, for which the 50% effective concentration (EC50) in test [1] was 1.72 µM (active); in test [2], > 60 µM (not active).
Take `CCOc1cc(/C=C(\C#N)C(=O)Nc2cccc(C(=O)O)c2)ccc1OCc1ccccc1Cl`: in test [4], the half-maximal cytotoxic concentration (CC50) is 29.9 µM (active).
Regarding `OC[C@H]1O[C@H](n2cnc3c(NC4CCCC4)nc(Cl)nc32)[C@@H](O)[C@@H]1O`, the concentration at half-maximal activity (AC50) in test [8] is 39.8 µM (inconclusive).
`COc1ccccc1N1CCN(C(CNC(=O)Oc2ccccc2)c2cccnc2)CC1` (stereo not drawn): the values for the concentration for a half-maximal effect (EC50) in test [1] and in test [2] were 5.42 µM (active) and > 60 µM (not active), respectively.
On to `Cc1ccc(Nc2nnc(-c3ccc(N4CCOCC4)c([N+](=O)[O-])c3)c3ccccc23)cc1`, for which the 50% cytotoxic concentration (CC50) in test [4] is 10.8 µM (active).
On to `O=C(c1csnn1)N1CCC[C@@]2(CCN(c3ncccn3)C2)C1`, for which the concentration at half-maximal activity (AC50) in test [8] is 12.6 µM (inconclusive).
Same read-out and setting: next, `N[C@](CC1c2ccccc2Oc2ccccc21)(C(=O)O)[C@@H]1C[C@@H]1C(=O)O`: 31.6 µM (inconclusive).
As to `CCOc1ccccc1Nc1cc(C)nc2ccc(C)cc12`, the CC50 in test [4] was 26.1 µM (active).
`O=c1n(Cc2ccccc2F)c2ccccc2n1Cc1ccccc1F`: the results for the EC50 in test [5], in test [6] and in test [7] were 22 µM (active), > 120 µM (not active) and > 120 µM (not active), respectively.
Regarding `COc1ccc(CN2CCN(Cc3cc4ccccc4o3)CC2CCO)cc1C` (stereo not drawn), the EC50 in test [1] was 0.306 µM (active); in test [2], > 60 µM (not active).
Regarding `O=C(O)CCC(=O)Nc1ccc2ccccc2c1`, the AC50 in test [8] was 0.0631 µM (inconclusive).
For `O=C(/C=C/c1ccccc1)Nc1ccc2c(c1)OCCO2`, the figures for the concentration for a half-maximal effect (EC50) in test [5], in test [6] and in test [7] were 10.7 µM (inconclusive), 10.4 µM (inconclusive) and 9.98 µM (inconclusive), respectively.
Turning to `Cc1c(C(=O)NN2CCCCC2)nn(-c2ccc(Cl)cc2Cl)c1-c1ccc(I)cc1`, the 50% effective concentration (EC50) in test [5] is 11.3 µM (active); in test [6], > 120 µM (not active); in test [7], 12.4 µM (active).
As for `O=C(N/N=C\c1cn(-c2ccccc2)nc1-c1ccccc1)c1ccc2c(c1)OCO2`, in test [8], the AC50 was 3.55 µM (inconclusive).
As for `Cc1ccc(C)c(OCCCC(C)(C)C(=O)O)c1` [GEMFIBROZIL], in test [8], the half-maximal activity concentration (AC50) was 12.6 µM (inconclusive).
